From patent US11339130B1 (Blade Therapeutics, Inc., priority 2016, dated 2022) come the findings set out here.

Like-named read-outs stand apart in the source and are kept apart here.

The target of experiment [1] is T1, Human Calpain 1/NS1 (Homo sapiens, UniProt P07384).
T1 sequence (P07384 1-714): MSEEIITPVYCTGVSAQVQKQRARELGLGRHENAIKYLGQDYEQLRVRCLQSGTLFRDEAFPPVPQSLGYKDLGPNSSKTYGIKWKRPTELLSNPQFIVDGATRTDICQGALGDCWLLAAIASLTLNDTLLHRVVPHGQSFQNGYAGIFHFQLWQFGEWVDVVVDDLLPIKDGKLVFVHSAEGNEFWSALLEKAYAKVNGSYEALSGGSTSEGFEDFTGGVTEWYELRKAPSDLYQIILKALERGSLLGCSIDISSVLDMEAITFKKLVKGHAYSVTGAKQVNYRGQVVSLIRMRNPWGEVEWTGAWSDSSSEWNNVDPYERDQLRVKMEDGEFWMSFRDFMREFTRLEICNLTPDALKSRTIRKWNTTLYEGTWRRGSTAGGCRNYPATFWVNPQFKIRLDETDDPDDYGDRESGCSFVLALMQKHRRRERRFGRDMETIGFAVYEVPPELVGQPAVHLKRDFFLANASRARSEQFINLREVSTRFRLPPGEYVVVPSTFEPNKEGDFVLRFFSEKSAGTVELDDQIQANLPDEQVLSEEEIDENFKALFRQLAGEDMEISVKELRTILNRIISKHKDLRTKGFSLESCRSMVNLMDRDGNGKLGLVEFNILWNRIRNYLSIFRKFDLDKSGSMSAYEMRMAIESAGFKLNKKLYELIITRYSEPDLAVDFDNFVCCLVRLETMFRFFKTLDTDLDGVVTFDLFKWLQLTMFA
T1 sequence (P04632 1-268 partner): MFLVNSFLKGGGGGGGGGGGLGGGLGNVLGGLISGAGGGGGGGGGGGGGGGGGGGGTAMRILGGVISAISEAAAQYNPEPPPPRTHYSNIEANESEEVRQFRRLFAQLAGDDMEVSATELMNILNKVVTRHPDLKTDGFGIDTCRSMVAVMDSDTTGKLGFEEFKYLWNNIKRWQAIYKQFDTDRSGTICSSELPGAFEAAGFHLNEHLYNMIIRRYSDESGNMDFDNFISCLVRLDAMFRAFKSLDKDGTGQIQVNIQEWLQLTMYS
In words: Calpain inhibition continuous fluorescence (FRET) assay, Human Calpain 1/NS1. The format is biochemical. The note with it: Column A; read-out: Human Calpain 1/NS1 IC50. An outline of the steps: (§1)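 Human calpains 1, 2 and 9 preincubated with inhibitor at 25 °C in 50 mM Tris pH 7.5, 100 mM NaCl, 1 mM DTT; reaction started with 5-FAM/QXL 520 FRET peptide plus CaCl2 for activation. Fluorescence (490/520 nm) followed 10 min; rates from 1-5 min slopes fitted to 4-parameter logistic for IC50.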

For experiment [2], the target named is T2, Human Calpain 9/NS1 (Homo sapiens, UniProt O14815).
T2 sequence (O14815 1-690): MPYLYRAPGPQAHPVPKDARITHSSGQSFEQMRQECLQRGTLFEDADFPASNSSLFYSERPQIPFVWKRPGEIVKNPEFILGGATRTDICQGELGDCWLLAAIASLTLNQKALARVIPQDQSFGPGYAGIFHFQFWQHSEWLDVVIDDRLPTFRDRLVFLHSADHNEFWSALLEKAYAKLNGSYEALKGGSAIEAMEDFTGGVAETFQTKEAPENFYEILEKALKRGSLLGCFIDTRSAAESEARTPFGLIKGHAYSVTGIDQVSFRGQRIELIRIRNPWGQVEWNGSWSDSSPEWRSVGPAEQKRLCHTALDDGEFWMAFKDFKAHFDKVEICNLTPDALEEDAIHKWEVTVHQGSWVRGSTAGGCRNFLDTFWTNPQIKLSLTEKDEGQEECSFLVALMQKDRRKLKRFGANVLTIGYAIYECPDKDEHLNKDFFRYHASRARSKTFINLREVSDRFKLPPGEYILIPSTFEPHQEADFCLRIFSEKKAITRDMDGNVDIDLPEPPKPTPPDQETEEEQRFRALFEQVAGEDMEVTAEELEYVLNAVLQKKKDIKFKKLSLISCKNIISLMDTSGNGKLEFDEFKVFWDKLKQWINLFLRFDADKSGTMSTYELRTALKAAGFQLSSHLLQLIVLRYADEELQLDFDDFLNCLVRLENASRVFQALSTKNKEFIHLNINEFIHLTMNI
T2 sequence (P04632 1-268 partner): T1 sequence (P04632 1-268 partner)
In words: Calpain inhibition continuous fluorescence (FRET) assay, Human Calpain 9/NS1. The note with it: Column C; read-out: Human Calpain 9/NS1 IC50. It counts as biochemical. The essentials: as §1

In experiment [3] the test system is Calpain activity in SH-SY5Y cells (SBDP-150). In words: SH-SY5Y Spectrin western blot assay (SBDP-150 breakdown product, A23187-induced). The format is cell-based. The note with it: Homo sapiens, read-out: SH-SY5Y Spectrin IC50.
Experiment [4] concerns the target T3, Human Calpain 2/NS1 (Homo sapiens, UniProt P17655).
T3 sequence (P17655 1-700): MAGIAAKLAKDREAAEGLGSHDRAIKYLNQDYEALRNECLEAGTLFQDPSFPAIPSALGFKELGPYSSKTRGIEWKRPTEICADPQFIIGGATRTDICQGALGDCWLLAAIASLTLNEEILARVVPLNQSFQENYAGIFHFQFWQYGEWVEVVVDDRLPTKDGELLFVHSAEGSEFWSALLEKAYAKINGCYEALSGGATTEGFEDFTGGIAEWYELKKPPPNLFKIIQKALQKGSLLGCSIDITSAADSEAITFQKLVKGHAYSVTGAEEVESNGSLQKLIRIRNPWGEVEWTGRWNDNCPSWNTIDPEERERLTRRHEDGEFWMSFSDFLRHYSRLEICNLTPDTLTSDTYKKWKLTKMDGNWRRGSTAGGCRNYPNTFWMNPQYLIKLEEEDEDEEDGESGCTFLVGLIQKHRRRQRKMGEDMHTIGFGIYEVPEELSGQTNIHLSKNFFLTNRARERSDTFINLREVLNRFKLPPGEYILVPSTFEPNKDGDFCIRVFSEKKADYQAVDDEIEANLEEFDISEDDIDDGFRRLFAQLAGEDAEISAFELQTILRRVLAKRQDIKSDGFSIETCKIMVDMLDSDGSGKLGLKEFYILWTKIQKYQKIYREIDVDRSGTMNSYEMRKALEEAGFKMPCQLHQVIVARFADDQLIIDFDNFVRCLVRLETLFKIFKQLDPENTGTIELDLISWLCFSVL
T3 sequence (P04632 1-268 partner): T1 sequence (P04632 1-268 partner)
In words: Calpain inhibition continuous fluorescence (FRET) assay, Human Calpain 2/NS1. It counts as biochemical. The note with it: Column B; read-out: Human Calpain 2/NS1 IC50. An outline of the steps: as §1

In experiment [5] the test system is Calpain activity in SH-SY5Y cells. In words: SH-SY5Y + AMC fluorescence assay (Suc-LLVY-AMC substrate). It counts as cell-based.
Where [6] appears, read: Column D, SH-SY5Y cells, A23187-induced SBDP-150.
The mark [7] stands for this setting: Column E, read-out: SH-SY5Y + AMC IC50.

As for `Cn1cc(C(=O)NC(Cc2ccccc2)C(=O)C(N)=O)c(-c2cccc(C(F)(F)F)n2)n1` (stereo not drawn) [Compound 198, N-(4-amino-3,4-dioxo-1-phenylbutan-2-yl)-1-methyl-3-(6-(trifluoromethyl)pyridin-2-yl)-1H-pyrazole-4-carboxamide], the IC50 in experiment [1] was < 3 µM; in experiment [2] it was < 3 µM; in experiment [3] (SH-SY5Y), > 25 µM; in experiment [4], < 3 µM; in experiment [5] (read-out: SH-SY5Y + AMC IC50, Column E), > 25 µM.

Turning to `NC(=O)C(=O)[C@H](Cc1ccccc1)NC(=O)c1cncn1-c1ccc(-c2ccccc2)nn1` [Compound 200, (S)—N-(4-amino-3,4-dioxo-1-phenylbutan-2-yl)-1-(6-phenylpyridazin-3-yl)-1H-imidazole-5-carboxamide], the IC50 in experiment [1] was < 3 µM; in experiment [2], < 3 µM; in experiment [3] (setting [6]), 10 to 25 µM; in experiment [4], < 3 µM; in experiment [5] (setting [7]) it was > 25 µM.

`Cc1cc(C(=O)N[C@@H](Cc2ccccc2)C(=O)C(N)=O)n(-c2ccc(-c3ccccc3C)cc2)n1` [Compound 202, (S)—N-(4-amino-3,4-dioxo-1-phenylbutan-2-yl)-3-methyl-1-(2′-methyl-[1,1′-biphenyl]-4-yl)-1H-pyrazole-5-carboxamide]: the IC50 was < 3 µM in experiment [1]; < 3 µM in experiment [2]; 10 to 25 µM in experiment [3] (setting [6]); < 3 µM in experiment [4]; > 25 µM in experiment [5] (setting [7]).

In the case of `NC(=O)C(=O)[C@H](Cc1ccccc1)NC(=O)c1sc(C2CC2)nc1-c1ccccc1` [Compound 207, (S)—N-(4-amino-3,4-dioxo-1-phenylbutan-2-yl)-2-cyclopropyl-4-phenylthiazole-5-carboxamide], the IC50 in experiment [1] was < 3 µM; in experiment [2], < 3 µM; in experiment [3] (setting [6]) it was 10 to 25 µM; in experiment [4], < 3 µM; in experiment [5] (setting [7]), < 10 µM.

With `Cc1cc(C(=O)N[C@@H](Cc2ccccc2)C(=O)C(N)=O)n(-c2ccc(C#N)cn2)n1` [Compound 208], the IC50 was < 3 µM in experiment [1]; < 3 µM in experiment [2]; < 10 µM in experiment [3] (setting [6]); < 3 µM in experiment [4]; > 25 µM in experiment [5] (setting [7]).

In the case of `Cc1cc(C(=O)N[C@@H](Cc2ccccc2)C(=O)C(N)=O)n(-c2ncc(-c3ccccc3)o2)n1` [Compound 212, (S)—N-(4-amino-3,4-dioxo-1-phenylbutan-2-yl)-3-methyl-1-(5-phenyloxazol-2-yl)-1H-pyrazole-5-carboxamide], the IC50 in experiment [1] was < 3 µM; in experiment [2] it was < 3 µM; in experiment [3] (setting [6]), 10 to 25 µM; in experiment [4] it was < 3 µM; in experiment [5] (setting [7]), < 10 µM.

Consider `Cc1cc(C(=O)N[C@@H](Cc2ccccc2)C(=O)C(N)=O)n(-c2ccc(-c3cccc(F)c3)cc2)n1` [Compound 216, (S)—N-(4-amino-3,4-dioxo-1-phenylbutan-2-yl)-1-(3′-fluoro-[1,1′-biphenyl]-4-yl)-3-methyl-1H-pyrazole-5-carboxamide], for which the IC50 is < 3 µM in experiment [1]; < 3 µM in experiment [2]; < 10 µM in experiment [3] (setting [6]); < 3 µM in experiment [4]; > 25 µM in experiment [5] (setting [7]).

On to `Cc1cc(C(=O)N[C@@H](Cc2ccccc2)C(=O)C(N)=O)n(-c2ccc(-c3ccccc3F)cc2)n1` [Compound 217, (S)—N-(4-amino-3,4-dioxo-1-phenylbutan-2-yl)-1-(2′-fluoro-[1,1′-biphenyl]-4-yl)-3-methyl-1 h-pyrazole-5-carboxamide], for which the IC50 is < 3 µM in experiment [1]; < 3 µM in experiment [2]; < 10 µM in experiment [3] (setting [6]); < 3 µM in experiment [4]; > 25 µM in experiment [5] (setting [7]).

Take `Cc1cccc(-c2ccc(-n3nc(C)cc3C(=O)N[C@@H](Cc3ccccc3)C(=O)C(N)=O)cc2)c1` [Compound 218, (S)—N-(4-amino-3,4-dioxo-1-phenylbutan-2-yl)-3-methyl-1-(3′-methyl-[1,1′-biphenyl]-4-yl)-1H-pyrazole-5-carboxamide]: the IC50 in experiment [1] was < 3 µM; in experiment [2], < 3 µM; in experiment [3] (setting [6]), 10 to 25 µM; in experiment [4], < 3 µM; in experiment [5] (setting [7]), > 25 µM.
